From PubChem BioAssay (NCI)
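Where inhibition never reached the appropriate level, the endpoint shown equals the highest concentration tested. Otherwise, values were interpolated linearly from a five-concentration, 48-hour dose response in 96-well plates. Abbreviation: GI50, concentration required for 50% inhibition of growth. TGI: total growth inhibition.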

Experiments:
Test in all cases: DTP human tumour cell line panel, 48 h
786-0 renal = test system: 786-0 renal
A498 renal = test system: A498 renal
A549 NSCLC = test system: A549 NSCLC
ACHN renal = test system: ACHN renal
BT-549 breast = test system: BT-549 breast
CAKI-1 renal = test system: CAKI-1 renal
CCRF-CEM leukemia = test system: CCRF-CEM leukemia
COLO 205 colon = test system: COLO 205 colon
DU-145 prostate = test system: DU-145 prostate
EKVX NSCLC = test system: EKVX NSCLC
HCC-2998 colon = test system: HCC-2998 colon
HCT-116 colon = test system: HCT-116 colon
HCT-15 colon = test system: HCT-15 colon
HL-60(TB) leukemia = test system: HL-60(TB) leukemia
HOP-62 NSCLC = test system: HOP-62 NSCLC
HOP-92 NSCLC = test system: HOP-92 NSCLC
HS 578T breast = test system: HS 578T breast
HT29 colon = test system: HT29 colon
IGROV1 ovarian = test system: IGROV1 ovarian
K-562 leukemia = test system: K-562 leukemia
KM12 colon = test system: KM12 colon
LOX IMVI melanoma = test system: LOX IMVI melanoma
M14 melanoma = test system: M14 melanoma
MALME-3M melanoma = test system: MALME-3M melanoma
MCF7 breast = test system: MCF7 breast
MDA-MB-231 breast = test system: MDA-MB-231 breast
MDA-MB-435 = test system: MDA-MB-435
MOLT-4 leukemia = test system: MOLT-4 leukemia
NCI-H226 lung = test system: NCI-H226 lung

Compound: CC(=O)O[C@@H]1C2CCC3C(CC[C@@]4(C)C3CC[C@@H]4C(C)N(C)C)[C@@]2(C)CC[C@@H]1NC(=O)C=C(C)C (some centres not stated)
- GI50 (786-0 renal): 2.42 µM
- TGI (786-0 renal): 6.73 µM
- GI50 (A498 renal): 2.32 µM
- TGI (A498 renal): 9.78 µM
- GI50 (A549 NSCLC): 2.58 µM
- TGI (A549 NSCLC): 6.27 µM
- GI50 (ACHN renal): 3.56 µM
- TGI (ACHN renal): 12.8 µM
- GI50 (BT-549 breast): 6.31 µM
- TGI (BT-549 breast): 22.5 µM
- GI50 (CAKI-1 renal): 3.4 µM
- TGI (CAKI-1 renal): 11.3 µM
- GI50 (CCRF-CEM leukemia): 2.07 µM
- TGI (CCRF-CEM leukemia): 6.59 µM
- GI50 (COLO 205 colon): 1.62 µM
- TGI (COLO 205 colon): 3.1 µM
- GI50 (DU-145 prostate): 4 µM
- TGI (DU-145 prostate): 16.4 µM
- GI50 (EKVX NSCLC): 2.8 µM
- TGI (EKVX NSCLC): 16.6 µM
- GI50 (HCC-2998 colon): 1.73 µM
- TGI (HCC-2998 colon): 3.66 µM
- GI50 (HCT-116 colon): 1.54 µM
- TGI (HCT-116 colon): 3.49 µM
- GI50 (HCT-15 colon): 1.39 µM
- TGI (HCT-15 colon): 3.45 µM
- GI50 (HL-60(TB) leukemia): 2.59 µM
- TGI (HL-60(TB) leukemia): 6.19 µM
- GI50 (HOP-62 NSCLC): 2.25 µM
- TGI (HOP-62 NSCLC): 5.62 µM
- GI50 (HOP-92 NSCLC): 1.66 µM
- TGI (HOP-92 NSCLC): 10.7 µM
- GI50 (HS 578T breast): 2.2 µM
- TGI (HS 578T breast): 6.82 µM
- GI50 (HT29 colon): 0.552 µM
- TGI (HT29 colon): 1.97 µM
- GI50 (IGROV1 ovarian): 4.76 µM
- TGI (IGROV1 ovarian): 16 µM
- GI50 (K-562 leukemia): 1.1 µM
- TGI (K-562 leukemia): 3.15 µM
- GI50 (KM12 colon): 2.66 µM
- TGI (KM12 colon): 9.5 µM
- GI50 (LOX IMVI melanoma): 1.47 µM
- TGI (LOX IMVI melanoma): 3.09 µM
- GI50 (M14 melanoma): 1.85 µM
- TGI (M14 melanoma): 3.63 µM
- GI50 (MALME-3M melanoma): 1.91 µM
- TGI (MALME-3M melanoma): 3.89 µM
- GI50 (MCF7 breast): 1.67 µM
- TGI (MCF7 breast): 4.38 µM
- GI50 (MDA-MB-231 breast): 2.24 µM
- TGI (MDA-MB-231 breast): 5.19 µM
- GI50 (MDA-MB-435): 1.92 µM
- TGI (MDA-MB-435): 4.26 µM
- GI50 (MOLT-4 leukemia): 2.33 µM
- TGI (MOLT-4 leukemia): 5.69 µM
- GI50 (NCI-H226 lung): 5.22 µM
